{"source": "PubChem BioAssay AID651677", "about": "(The Scripps Research Institute Molecular Screening Center, 2012)", "note": "pIC50: −log10 of the molar value. Active and inactive are the calls of the source. How the calls were made is not given here.", "data": [{"target": "Perilipin-5 (Homo sapiens) + 1-acylglycerol-3-phosphate O-acyltransferase ABHD5 (Homo sapiens) (UniProt Q00G26+Q8WTS1)", "sequence (Q00G26 whole entry, looked up)": "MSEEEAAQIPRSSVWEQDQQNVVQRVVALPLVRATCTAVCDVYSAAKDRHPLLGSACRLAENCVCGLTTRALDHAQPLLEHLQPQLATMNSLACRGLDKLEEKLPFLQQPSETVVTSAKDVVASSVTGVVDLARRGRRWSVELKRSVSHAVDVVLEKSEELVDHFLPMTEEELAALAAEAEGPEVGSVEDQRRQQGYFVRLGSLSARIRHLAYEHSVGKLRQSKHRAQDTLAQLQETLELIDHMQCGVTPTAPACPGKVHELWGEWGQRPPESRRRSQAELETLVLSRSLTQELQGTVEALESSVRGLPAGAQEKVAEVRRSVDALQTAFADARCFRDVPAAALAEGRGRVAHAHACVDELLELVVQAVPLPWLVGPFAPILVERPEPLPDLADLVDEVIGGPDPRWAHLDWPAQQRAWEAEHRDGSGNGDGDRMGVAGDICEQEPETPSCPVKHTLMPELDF", "sequence (Q8WTS1 whole entry, looked up)": "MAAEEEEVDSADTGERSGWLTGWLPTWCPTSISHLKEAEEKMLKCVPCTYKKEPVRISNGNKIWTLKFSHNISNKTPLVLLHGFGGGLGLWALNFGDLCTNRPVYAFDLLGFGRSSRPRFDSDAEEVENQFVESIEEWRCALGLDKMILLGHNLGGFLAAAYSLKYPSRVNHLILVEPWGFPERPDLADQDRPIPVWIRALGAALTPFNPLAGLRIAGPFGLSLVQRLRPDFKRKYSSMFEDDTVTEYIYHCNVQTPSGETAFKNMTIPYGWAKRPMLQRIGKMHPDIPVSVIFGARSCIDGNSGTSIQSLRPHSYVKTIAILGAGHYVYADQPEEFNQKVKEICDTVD", "experiment": "blockers of ABHD5 binding to perilipin-5 – biochemical, luminescence, dose response (AID 651677)", "settings": "ABHD5-PLIN5 interaction", "values": [{"smiles": "CCN(CC)CCC(C)OC(c1ccccc1)c1ccccc1", "note": "(configuration not stated)", "pIC50": 5.47}, {"smiles": "Cc1ccc(O)c(C(=O)C=Cc2ccccc2)c1", "pIC50": 5.50}, {"smiles": "CCCCNC(=O)Nc1ccc2c(c1)N(C)C(=O)c1ccccc1S2", "pIC50": 5.39}, {"smiles": "COC/C=C/C1=CC2=CC(=O)C(C)(OC(=O)C3CCCC3)C(=O)C2=CO1", "note": "(configuration not stated)", "pIC50": 5.76}, {"smiles": "C=CC(=O)N1c2ccccc2Sc2ccc(NC(=O)OCC)cc21", "pIC50": 5.22}, {"smiles": "COc1ccc(C(C(=O)Nc2ccc3c(c2)OCCO3)n2c(=O)c(-c3ccco3)nc3ccccc32)cc1", "note": "(configuration not stated)", "pIC50": 5.12}, {"smiles": "Oc1ccc2sc(-c3ccccc3O)c(-c3ccc(OCCN4CCCCC4)cc3)c2c1", "IC50": "inactive"}, {"smiles": "NC(=O)CCN1CCN(CCOC2Cc3cc(Cl)ccc3Sc3ccccc32)CC1", "note": "(configuration not stated)", "IC50": "inactive"}, {"smiles": "O=C(NC1CCCCC1)C(c1ccccc1F)n1c(=O)c(-c2ccco2)nc2ccccc21", "note": "(configuration not stated)", "pIC50": 5.90}, {"smiles": "CC(CCc1ccco1)NC(=O)CCc1nnc2ccc(NCc3ccccc3Cl)nn12", "note": "(configuration not stated)", "pIC50": 5.05}, {"smiles": "COc1ccc(C(C(=O)NC(C)(C)C)n2c(=O)c(-c3ccco3)nc3ccccc32)cc1", "note": "(configuration not stated)", "pIC50": 5.77}, {"smiles": "O=S(=O)(NC1=NCCCCC1)c1ccc2sc(NS(=O)(=O)c3ccc4ccccc4c3)nc2c1", "IC50": "inactive"}, {"smiles": "CCOC(=O)C1C(OC(=O)c2ccccc2)CC2CCC1N2C", "note": "(configuration not stated)", "pIC50": 5.03}, {"smiles": "C#CCN(C[C@@H]1[C@@H](OC(=O)Nc2cccs2)[C@@H](OC(=O)Nc2cccs2)Cn2c(=O)ccc(=O)n21)S(=O)(=O)c1ccc(C)cc1", "pIC50": 5.75}, {"smiles": "O=C(NC1CCCCC1)C(c1ccnc2ccccc12)n1c(=O)c(-c2ccco2)nc2ccccc21", "note": "(configuration not stated)", "pIC50": 5.78}, {"smiles": "CC(C)(C)NC(=O)C(c1ccc(C(F)(F)F)cc1)n1c(=O)c(-c2ccco2)nc2ccccc21", "note": "(configuration not stated)", "pIC50": 5.88}, {"smiles": "Cc1cccc(C)c1NC(=O)C(c1ccc(-c2ccccc2)cc1)n1c(=O)c(-c2ccco2)nc2ccccc21", "note": "(configuration not stated)", "pIC50": 5.88}, {"smiles": "CN(C)CCCN(C(=O)CCc1ccccc1)c1nc2ccc(Br)cc2s1", "pIC50": 5.10}, {"smiles": "C#CCN(C[C@@H]1[C@@H](OC(=O)NCc2ccc(OC)c(OC)c2)[C@@H](OC(=O)NCc2ccc(OC)c(OC)c2)Cn2c(=O)ccc(=O)n21)S(=O)(=O)c1ccc(C)cc1", "pIC50": 5.28}, {"smiles": "Cc1cccc(C)c1NC(=O)C(c1ccnc2ccccc12)n1c(=O)c(-c2ccco2)nc2ccccc21", "note": "(configuration not stated)", "pIC50": 5.45}, {"smiles": "CCN(CC)CCOc1ccc(/C(=C(\\Cl)c2ccccc2)c2ccccc2)cc1", "pIC50": 5.61}, {"smiles": "CCOC(=O)N1CCN(C(=O)C[C@@H]2C[C@@]3(C(=O)OCC)CCC=C3N(Cc3ccc(Cl)cc3Cl)C2=O)CC1", "IC50": "inactive"}, {"smiles": "C=C[C@]1(C)C[C@@H](OC(=O)CSCCN(CC)CC)[C@]2(C)C(C)CC[C@]3(CCC(=O)[C@H]32)[C@@H](C)[C@@H]1O", "note": "(some centres not stated)", "pIC50": 5.09}, {"smiles": "CCCCn1c(SCC(=O)NCc2ccco2)nnc1-c1ccoc1C", "pIC50": 5.32}, {"smiles": "CCOC1=CC2=C(C(=O)C(Cl)=CC2=O)[C@@H]2CN(S(=O)(=O)c3ccc(C)cc3)[C@@H](c3ccccc3)[C@H]12", "pIC50": 6.03}, {"smiles": "CCC(c1nc2ccccc2[nH]1)n1c(=O)c(-c2ccco2)nc2ccccc21", "note": "(configuration not stated)", "pIC50": 5.51}, {"smiles": "Cc1ccc(C(=O)c2c(C)oc3c2C(=O)C(=O)c2ccccc2-3)cc1", "pIC50": 5.42}, {"smiles": "COC(=O)c1ccc(Cn2cc(/C=C\\[N+](=O)[O-])c3ccccc32)o1", "pIC50": 5.20}, {"smiles": "CCSc1nnc(NC(=O)c2nc(S(=O)(=O)Cc3ccc(F)cc3)ncc2Cl)s1", "pIC50": 5.63}, {"smiles": "CN(C)c1ccc(Cc2cc3c(O)ccc(O)c3cc(Cc3ccc(N(C)C)cc3)c2=O)cc1", "pIC50": 5.70}, {"smiles": "O=C(/C=C/c1ccc(NC(=O)c2ccccc2-c2ccccc2C(=O)O)cc1)c1ccccc1", "pIC50": 5.15}, {"smiles": "CSc1nnc(NC(=O)c2nc(S(=O)(=O)Cc3ccc(C)cc3)ncc2Cl)s1", "pIC50": 5.60}, {"smiles": "Cc1cccc(C)c1NC(=O)C(c1ccccc1)n1c(=O)c(-c2ccco2)nc2ccccc21", "note": "(configuration not stated)", "pIC50": 5.28}, {"smiles": "O=C(NC1CCCCC1)C(c1ccccc1)n1c(=O)c(-c2ccco2)nc2ccccc21", "note": "(configuration not stated)", "pIC50": 6.17}, {"smiles": "CCOC(=O)C1CCCN(C(=O)c2cc(Nc3ccc(OC)cc3)nc3ccccc23)C1", "note": "(configuration not stated)", "IC50": "inactive"}, {"smiles": "N#Cc1ccc(C(C(=O)NCc2ccccc2)n2c(=O)c(-c3ccco3)nc3ccccc32)cc1", "note": "(configuration not stated)", "pIC50": 5.81}, {"smiles": "O=C(COc1ccccc1Cl)Nc1ccc(N2CCCC2)cc1", "IC50": "> 39.9 µM (inactive)"}]}]}
